Assay results as given in ChEMBL document CHEMBL1799917, “Isolation, sequencing, and structure-activity relationships of cyclotides” (J Nat Prod, 2010).
Activity calls are given as the source filed them. No cut-off for these calls is given here. Where a SMILES comes first, the peptide text is derived from it. Bridges are numbered along the chain shown (N, C = ends).

Key:
[1] = test system: Human immunodeficiency virus 1; test: Antiviral activity against HIV1 infected in human CEM-SS cells assessed as protection against virus-induced cytopathic effect by XTT method; type: functional, organism-based; settings: Human immunodeficiency virus 1, CEM-SS
CEM-SS (Homo sapiens) = test: Cytotoxicity against human CEM-SS cells
[2] = Hemolytic activity in human type A RBC assessed as concentration required to cause 75% hemolysis after 1 hr by microtitre plate; type: ADME, cell-based; settings: erythrocyte
Helicoverpa punctigera = test: Insecticidal activity against Helicoverpa punctigera assessed as inhibition of development of larvae at 0.825 umol/g after 16 days; type: functional, organism-based
Helicoverpa armigera = test: Insecticidal activity against Helicoverpa armigera assessed as growth inhibition; type: functional, organism-based
[3] = Hemolytic activity in human type A RBC assessed as hemolysis after 1 hr by microtitre plate; type: ADME, cell-based; settings: Erythrocyte

CC(C)C[C@@H]1NC(=O)[C@H](CC(C)C)NC(=O)[C@@H]2CSSC[C@@H]3NC(=O)[C@H]([C@@H](C)O)NC(=O)[C@@H]4CSSC[C@H](NC(=O)[C@H](CC(N)=O)NC(=O)[C@H](CC(C)C)NC(=O)[C@H](C(C)C)NC(=O)[C@H](CO)NC(=O)CNC(=O)[C@H](CC(=O)O)NC(=O)[C@H](CCCCN)NC(=O)[C@H]([C@@H](C)O)NC(=O)[C@H](CSSC[C@H](NC(=O)[C@H]([C@@H](C)O)NC(=O)CNC1=O)C(=O)N[C@@H](Cc1ccc(O)cc1)C(=O)N[C@@H]([C@@H](C)O)C(=O)N[C@@H]([C@@H](C)O)C(=O)NCC(=O)N4)NC(=O)[C@H](C(C)C)NC(=O)[C@H](CCCNC(=N)N)NC(=O)[C@H](Cc1ccc(O)cc1)NC(=O)[C@H](CCCCN)NC(=O)[C@H](CC(N)=O)NC3=O)C(=O)NCC(=O)N[C@@H](CCC(=O)O)C(=O)N[C@@H]([C@@H](C)O)C(=O)N2 [KALATA B8] (cyclo(CGETCLLGTCYTTGCTCNKYRVCTKDGSVLN); disulfide 1-15, 5-17, 10-23)
EC50 [1]: 2.5 µM | IC50 (CEM-SS (Homo sapiens)): 3.5 µM

CC(C)C[C@@H]1NC(=O)CNC(=O)[C@H](CC(N)=O)NC(=O)[C@H](Cc2cnc[nH]2)NC(=O)[C@H]([C@@H](C)O)NC(=O)[C@@H]2CSSC[C@@H]3NC(=O)[C@H]([C@@H](C)O)NC(=O)CNC(=O)CNC(=O)[C@H](Cc4ccccc4)NC(=O)[C@@H]4CSSC[C@H](NC(=O)[C@H]([C@@H](C)O)NC(=O)[C@H](CSSC[C@H](NC(=O)[C@H]([C@@H](C)O)NC(=O)[C@@H]5CCCN5C1=O)C(=O)NCC(=O)N[C@@H](CCC(=O)O)C(=O)N[C@@H]([C@@H](C)O)C(=O)N4)NC(=O)CNC(=O)[C@@H]1CCCN1C(=O)[C@H]([C@@H](C)O)NC(=O)[C@H](CC(N)=O)NC3=O)C(=O)N[C@@H](CC(=O)O)C(=O)N1CCC[C@H]1C(=O)N[C@@H](Cc1c[nH]c3ccccc13)C(=O)N1CCC[C@H]1C(=O)N[C@@H](C(C)C)C(=O)N2 [CYCLOVIOLACIN O24] (cyclo(CDPWPVCTHNGLPTCGETCFGGTCNTPGCT); disulfide 1-19, 7-24, 15-29)
Activity [2]: 25 µM

CC(C)C[C@@H]1NC(=O)CNC(=O)[C@H](CC(N)=O)NC(=O)[C@H](CCCNC(=N)N)NC(=O)[C@H]([C@@H](C)O)NC(=O)[C@H](CS)NC(=O)[C@H](C(C)C)NC(=O)[C@@H]2CCCN2C(=O)[C@H](CCC(=O)O)NC(=O)[C@H](CO)NC(=O)[C@H](CS)NC(=O)[C@H]([C@@H](C)O)NC(=O)[C@H](CS)NC(=O)CNC(=O)[C@@H]2CCCN2C(=O)[C@H]([C@@H](C)O)NC(=O)[C@H](CC(N)=O)NC(=O)[C@H](CS)NC(=O)[C@H]([C@@H](C)O)NC(=O)CNC(=O)CNC(=O)[C@H](C(C)C)NC(=O)[C@H](CS)NC(=O)[C@H]([C@@H](C)O)NC(=O)[C@H](CCC(=O)O)NC(=O)CNC(=O)[C@H](CS)NC(=O)[C@H](C(C)C)NC(=O)[C@@H]2CCCN2C1=O [KALATA B1]
Activity (Helicoverpa punctigera): Active

CC[C@H](C)[C@@H]1NC(=O)[C@@H]2CCCN2C(=O)[C@H](Cc2c[nH]c3ccccc23)NC(=O)[C@H]([C@@H](C)O)NC(=O)[C@@H]2CSSC[C@@H]3NC(=O)[C@](C)([C@@H](C)O)NC(=O)[C@H](CCC(=O)O)NC(=O)CNC(=O)[C@@H]4CSSC[C@H](NC(=O)CNC(=O)[C@@H]5CCCN5C(=O)[C@H]([C@@H](C)O)NC(=O)[C@H](CC(N)=O)NC(=O)[C@H](CSSC[C@H](NC1=O)C(=O)N[C@@H]([C@@H](C)O)C(=O)N[C@@H](CCCNC(=N)N)C(=O)N[C@@H](CC(=O)O)C(=O)NCC(=O)N[C@@H](CC(C)C)C(=O)N1CCC[C@H]1C(=O)N[C@@H](C(C)C)C(=O)N4)NC(=O)[C@H]([C@@H](C)O)NC(=O)CNC(=O)CNC(=O)[C@H](Cc1ccccc1)NC3=O)C(=O)N[C@@H](CO)C(=O)N2
Activity (Helicoverpa armigera): Active

CC[C@H](C)[C@@H]1NC(=O)[C@H](C)NC(=O)[C@H](C)NC(=O)[C@H](CO)NC(=O)[C@H]([C@@H](C)CC)NC(=O)[C@@H]2CSSC[C@@H]3NC(=O)[C@H](C(C)C)NC(=O)[C@H](CCCCN)NC(=O)[C@H](CO)NC(=O)[C@H](CCCCN)NC(=O)[C@@H]4CSSC[C@H](NC(=O)[C@H](CO)NC(=O)[C@H](CCC(=O)O)NC(=O)CNC(=O)[C@H](CSSC[C@H](NC(=O)CNC1=O)C(=O)N[C@@H](CO)C(=O)N4)NC(=O)[C@@H]1CCCN1C(=O)[C@H]([C@@H](C)CC)NC(=O)CNC(=O)[C@H](CC(N)=O)NC(=O)[C@H](CCCNC(=N)N)NC(=O)[C@H](Cc1ccc(O)cc1)NC3=O)C(=O)N[C@@H](C(C)C)C(=O)N[C@@H](Cc1c[nH]c3ccccc13)C(=O)N[C@@H]([C@@H](C)CC)C(=O)N1CCC[C@H]1C(=O)N2 [CYCLOVIOLACIN O13] (cyclo(AAIGCSCKSKVCYRNGIPCGESCVWIPCIS); disulfide 5-19, 7-23, 12-28)
IC50 [3]: 11 µM
